Data: publication PMC11133798, “Vosoritide treatment for children with hypochondroplasia: a phase 2 trial” (eClinicalMedicine, 2024)
Where “and” joins values, the source holds several entries; their conditions need not be identical. Identical values can stand only once.

How the values were obtained:
[1] = test system: children with hypochondroplasia; test: Phase 2 open-label trial: height efficacy outcomes (annualized growth velocity, height SDS); assay type: in vivo, human; settings: for Annualized growth velocity, treatment period / Annualized growth velocity SDS, treatment period: SD
Description: The study consists of a 6-month observation period to establish a baseline annualized growth velocity followed by a 12-month intervention period during which vosoritide is administered daily via subcutaneous injection at a dose of 15 μg/kg/day, the same dose as used in the Phase 3 trial of children with achondroplasia.[7] […] Details of the protocol can be found in the Supplementary Materials.
The study has 3 prespecified co-primary outcomes: 1. To evaluate the safety and tolerability of daily subcutaneous injections of vosoritide administered for 12 months in patients with selected genetic causes of short stature, 2. To evaluate the change from baseline in age-sex standardized annualized growth velocity after 12 months of daily SC injections of vosoritide in patients with selected genetic causes of short stature, and 3. To evaluate the change from baseline in age-sex standardized height SDS after 12 months of daily SC injections of vosoritide in patients with selected genetic causes of short stature. Annualized growth velocity was standardized using data from the First Zurich Longitudinal Study of Growth and Development[9] as it includes growth velocity data starting at age 2.5 years. Height SDS was calculated using the United States CDC growth charts.[8] Hypochondroplasia specific height SDS was calculated using recently published hypochondroplasia growth curves.[10] To measure these outcomes, the following 3 co-primary endpoints were specified: 1. The incidence of adverse events per participant, 2. The change from baseline in age-sex standardized annualized growth velocity after 12 months of treatment, and 3. The change from baseline in age-sex standardized height SDS after 12 months of treatment. Height was measured five times at each study visit on a wall-mounted calibrated Harpenden stadiometer. The average of all five values was used. Safety assessments included routine laboratory evaluations at each visit, baseline and Month 12 echocardiograms, electrocardiograms at each visit, vital signs measurements, and spine X-rays at Day 1 and Month 12.
(§1) No formal power calculations were done for this proof of principle study. Sample size was determined based on logistical feasibility. Medication adherence was calculated using the number of returned empty vials divided by the number of days of prescribed therapy. Demographics and clinical characteristics were summarized with mean and standard deviation (SD), median and interquartile (IQR) for numerical variables, frequency and proportion for categorical variables. Primary and secondary clinical outcomes were summarized with mean (SD) for the 6-month observation period and the 12-month treatment period. Paired t-tests were carried out to compare the difference between the treatment and observation periods. The corresponding p-value and 95% confidence interval (CI) were reported. Box and whisker plots were used for both primary endpoints (annualized growth velocity and height SDS) and exploratory endpoints (CXM and cGMP) to visualize the trends for the change from baseline to each of the follow-up visits. Safety data (AEs) were summarized as count and percentage of patients as well as the number of total occurrences per each listed AE for the observation period and the treatment period, respectively. As exploratory analyses, the primary endpoints were stratified based on age, baseline growth velocity and baseline height SDS. The summaries of mean (SD) for each visit, mean differences between treatment and observation periods, and the corresponding p-value and 95% CI were all reported. Parent reported quality of life using the QoLISSY scale was also reported with a similar tabular format. Data were analyzed using SAS for Windows version 9.4 (SAS Institute Inc., Cary, NC). A two-sided test with a significance level of 0.05 was used for all hypothesis tests.

[2] = test system: neutral endopeptidase (NEP); settings: conveyed by Pro-Gly addition on the N-terminus; protocol statement, no data shown; cited from earlier work
From the text: Third, Dr. Dauber (the PI) will p ...

[3] = test system: patients with achondroplasia; settings: cited from earlier work
[4] = test system: children with hypochondroplasia; test: Parent-reported quality of life, QoLISSY scale; assay type: in vivo, human
Description: Secondary outcomes included the change in body proportions as measured by sitting height to standing height ratio and arm span minus standing height, as well as the change in bone age to chronological age ratio after 12 months of therapy. Sitting height was measured three times at each visit using a sitting height table. The average of the three values was used. Sitting height to standing height ratio and arm span minus standing height were standardized for age and sex using available reference data and SDS were calculated.[11]^,[12] Bone age X-rays were read by a single reviewer who was blinded to participant ID, age and time point. Exploratory endpoints included pharmacokinetic parameters, pharmacodynamic markers including collagen X biomarker (CXM) levels and urine cGMP production, and changes in quality of life as measured by the QoLISSY scale.[13] CXM levels in serum were measured in duplicate via an ELISA assay at the Shriners Hospitals for Children in Portland, Oregon as previously described.[14] The average of the two values was used for analysis. Urine samples were obtained for cGMP measurement at baseline and 60, 120, and 240 min after vosoritide injections at the Day 1, Month 6 and Month 12 visits. cGMP levels were assayed at ICON Laboratories (Farmingdale, NY) and were normalized to urine creatinine levels at each time point.
as §1

PGQEHPNARKYKGANKKGLSKGCFGLKLDRIGSMSGLGC (disulfide) [vosoritide, recombinant 39-amino-acid C-type natriuretic peptide analog expressed in E. coli, cyclic by an intramolecular disulfide bond]
Annualized growth velocity, treatment period ([1]; 15 μg/kg/day SC daily, 12-month treatment period, n=24, mean (SD), 6-month observation period 5.12 (1.36)): 6.93 (0.93) cm/year | Standing height SDS, change during treatment period ([1]; CDC growth charts, Day 1 to Month 12, n=24, mean (95% CI), change in observation period 0.01 (−0.06, 0.08)): 0.37 (0.27, 0.47) SD | Hypochondroplasia specific standing height SDS, change during treatment period ([1]; Day 1 to Month 12, n=24, mean (95% CI), change in observation period 0.03 (−0.12, 0.19)): 0.41 (0.32, 0.50) SD | Annualized growth velocity SDS, treatment period ([1]; age-sex standardized (First Zurich Longitudinal Study), 15 μg/kg/day SC, 12-month treatment, n=24, mean (SD), observation period −1.14 (1.29)): 1.12 (1.05) cm/year | Annualized growth velocity, Month 6 versus Month 12 visit ([1]; n=24, on treatment): no significant difference | Increase in annualized growth velocity, single participant with treatment interruption ([1]; person, vosoritide suspended for 40 days for immune thrombocytopenia): 2.4 cm/year | Annualized growth velocity, treatment period ([1]; subgroup Age 3 to <5 Year (N=10), 12-month treatment, 15 μg/kg/day SC, mean (SD), observation 5.97 (1.38)): 7.32 (0.79) cm/yr | Annualized growth velocity SDS, treatment period ([1]; subgroup Age 3 to <5 Year (N=10), mean (SD), observation -0.82 (1.12)): 1.23 (1.01) cm/yr | Annualized growth velocity, treatment period ([1]; subgroup Age 5 to <9 Year (N=11), mean (SD), observation 4.27 (0.75)): 6.91 (0.80) cm/yr | Annualized growth velocity SDS, treatment period ([1]; subgroup Age 5 to <9 Year (N=11), mean (SD), observation -1.93 (0.81)): 1.29 (1.13) cm/yr | Annualized growth velocity SDS, treatment period ([1]; subgroup Age 9 to <11 Year (N=3), mean (SD), observation 0.71 (1.12)): 0.16 (0.38) cm/yr | Annualized growth velocity, treatment period ([1]; subgroup Age 9 to <11 Year (N=3), mean (SD), observation 5.37 (1.53)): 5.71 (0.98) cm/yr | Annualized growth velocity, treatment period ([1]; subgroup GV baseline <=5.0 (N=14), mean (SD), observation 4.17 (0.59)): 6.91 (1.01) cm/yr | Annualized growth velocity, treatment period ([1]; subgroup GV baseline > 5.0 (N=10), mean (SD), observation 6.45 (0.94)): 6.96 (0.85) cm/yr | Annualized growth velocity, treatment period ([1]; subgroup Height SDS baseline -3.5 to <=-3.0 (N=9), mean (SD), observation 5.17 (0.89)): 6.88 (0.84) cm/yr | Annualized growth velocity, treatment period ([1]; subgroup Height SDS baseline <=-3.5 (N=7), mean (SD), observation 4.67 (1.11)): 6.64 (1.14) cm/yr | Annualized growth velocity, treatment period ([1]; subgroup Height SDS baseline >-3.0 (N=8), mean (SD), observation 5.46 (1.95)): 7.24 (0.86) cm/yr | Change in annualized growth velocity (SDS), single participants without the Asn540Lys variant in FGFR3 ([1]; two participants (Gly342Cys, Ser351Phe per Table 1), one value each, cohort mean 2.26 SD): 2.5 SD and 2.4 SD | Degradation by neutral endopeptidase (NEP) [2]: resistance to neutral endopeptidase (NEP) degradation | Mean gain in height standard deviation score ([3]; achondroplasia, 15 µg/kg, after 42 months of intervention, ref 2 (protocol list)): 1.03 SD | Efficacy of 15 µg/kg/day dose versus 30 µg/kg/day dose ([3]; annualized growth velocity, Phase II achondroplasia, ref 2 (protocol list)): equally efficacious to the 30 µg/kg/day dose | Symptomatic hypotensive episode ([3]; in vivo): a single patient | Overall or domain specific parental-reported quality of life (QoLISSY) ([4]; 12 months of treatment): no significant changes | QoLISSY Coping, change during treatment period ([4]; mean, 95% CI (-7.29, 3.75), p=0.51): -1.77 | QoLISSY Belief, change during treatment period ([4]; mean, 95% CI (-9.30, 10.39), p=0.91): 0.54 | QoLISSY Physical, change during treatment period ([4]; mean, 95% CI (-10.25, 7.47), p=0.75): -1.39 | QoLISSY Total (Social, Emotional, Coping), change during treatment period ([4]; mean, 95% CI (-10.55, 4.09), p=0.37): -3.23 | QoLISSY Emotional, change during treatment period ([4]; mean, 95% CI (-12.12, 3.01), p=0.23): -4.56 | QoLISSY Social, change during treatment period ([4]; mean, 95% CI (-12.43, 4.96), p=0.38): -3.74 | QoLISSY Total (Social, Emotional, Coping), Month 6 ([4]; parent-reported, mean, SD (16.08), Day 1 60.33 (18.99)): 61.73 | QoLISSY Treatment, Month 12 ([4]; parent-reported, mean, SD (16.43)): 38.23 | QoLISSY Total (Social, Emotional, Coping), Month 12 ([4]; parent-reported, mean, SD (17.99)): 57.10 | QoLISSY Treatment, Month 6 ([4]; parent-reported, mean, SD (18.36)): 37.86 | QoLISSY Emotional, Month 12 ([4]; parent-reported, mean, SD (18.44)): 62.37 | QoLISSY Coping, Month 12 ([4]; parent-reported, mean, SD (18.71)): 35.79 | QoLISSY Physical, Month 6 ([4]; parent-reported, mean, SD (18.77), Day 1 52.60 (18.22)): 55.38 | QoLISSY Social, Month 6 ([4]; parent-reported, mean, SD (19.50), Day 1 61.46 (21.05)): 61.20 | QoLISSY Physical, Month 12 ([4]; parent-reported, mean, SD (20.09)): 51.22 | QoLISSY Emotional, Month 6 ([4]; parent-reported, mean, SD (20.12), Day 1 66.93 (22.25)): 68.62 | QoLISSY Social, Month 12 ([4]; parent-reported, mean, SD (20.40)): 57.72 | QoLISSY Coping, Month 6 ([4]; parent-reported, mean, SD (20.45), Day 1 38.14 (19.61)): 35.61 | QoLISSY Belief, Month 12 ([4]; parent-reported, mean, SD (22.98)): 66.93 | QoLISSY Belief, Month 6 ([4]; parent-reported, mean, SD (29.10), Day 1 65.22 (28.63)): 62.23
